Conditions in all cases: read-out: % displacement at 10 μM
Experiment [1] concerns the target T1, cannabinoid receptor 1 (CB1R) (Mus musculus, UniProt P47746).
T1 construct: gene Cnr1; native receptor in mouse brain membranes
Description: [3H]CP55, […] competition radioligand binding, mouse brain membranes, […] (weak).

Experiment [2] has as its target T1, cannabinoid receptor 1 (CB1R). Briefly: [3H]CP55, […] competition radioligand binding, mouse brain membranes, […].
For experiment [3] the target is unchanged. Description: [3H]CP55, […] competition radioligand binding, mouse brain membranes, […] (positive control).

The values below come from publication PMC10747202, “Computational and Experimental Drug Repurposing of FDA-Approved Compounds Targeting the Cannabinoid Receptor CB1” (Pharmaceuticals, 2023).

T1 sequence (P47746 whole entry): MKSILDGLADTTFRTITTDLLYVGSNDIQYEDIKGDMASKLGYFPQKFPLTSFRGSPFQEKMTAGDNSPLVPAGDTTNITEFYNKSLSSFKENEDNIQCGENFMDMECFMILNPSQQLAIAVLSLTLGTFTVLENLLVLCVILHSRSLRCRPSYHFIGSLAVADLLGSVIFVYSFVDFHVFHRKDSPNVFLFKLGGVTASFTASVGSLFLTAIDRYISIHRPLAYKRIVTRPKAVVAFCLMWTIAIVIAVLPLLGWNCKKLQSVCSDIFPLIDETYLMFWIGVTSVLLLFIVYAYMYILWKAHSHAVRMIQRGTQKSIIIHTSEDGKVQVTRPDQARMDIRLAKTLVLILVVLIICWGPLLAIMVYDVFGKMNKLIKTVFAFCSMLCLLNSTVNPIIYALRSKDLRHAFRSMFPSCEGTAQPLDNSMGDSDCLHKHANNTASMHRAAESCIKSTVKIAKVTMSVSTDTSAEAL

For `Nc1nc(N)c2nc(CNc3ccc(C(=O)N[C@@H](CCC(=O)O)C(=O)O)cc3)cnc2n1` [APGA, Aminopterin], in experiment [1], the inhibition at 10 µM was approximately 30%. The same measure, in the same setting: the result for `COc1ccc(CN=c2[nH]c(N3CCC[C@H]3CO)ncc2C(=O)NCc2ncccn2)cc1Cl` [Avanafil] reads approximately 30%. `CN(Cc1cnc2nc(N)nc(N)c2n1)c1ccc(C(=O)N[C@@H](CCC(=O)O)C(=O)O)cc1` [Methotrexate]: in experiment [2], the inhibition at 10 µM is approximately 50%. Same read-out and setting: the result for `CCCCCCCCCCCCCCCCOP(=O)([O-])OCC[N+](C)(C)C` [Miltefosine] reads approximately 60%.

For the molecule `O=C(c1ccc(OCCN2CCCCC2)cc1)c1c(-c2ccc(O)cc2)sc2cc(O)ccc12` [Raloxifene], in experiment [3], the inhibition at 10 µM was more than 50%. As for `Cc1nnc(C(=O)NC(C)(C)c2nc(C(=O)NCc3ccc(F)cc3)c(O)c(=O)n2C)o1` [Raltegravir], the inhibition at 10 µM in experiment [2] is approximately 80%. In the case of `COC(=O)N(C)c1c(N)nc(-c2nn(Cc3ccccc3F)c3ncccc23)nc1N` [Riociguat], the inhibition at 10 µM in experiment [1] was approximately 20%. Take `CCCCC(=O)N(Cc1ccc(-c2ccccc2-c2nnn[nH]2)cc1)[C@H](C(=O)O)C(C)C` [Valsartan]: the inhibition at 10 µM in experiment [1] is approximately 30%.
